# Data taken from patent US10307425B2, “Compositions and methods for treating toxoplasmosis, cryptosporidiosis and other apicomplexan protozoan related diseases” (UNIVERSITY OF WASHINGTON, priority 2015, dated 2019).
# Biological target: TgCDPK1 (Toxoplasma gondii, UniProt Q9BJF5)
# Test: biochemical
# Chain of TgCDPK1 (Q9BJF5 1-507): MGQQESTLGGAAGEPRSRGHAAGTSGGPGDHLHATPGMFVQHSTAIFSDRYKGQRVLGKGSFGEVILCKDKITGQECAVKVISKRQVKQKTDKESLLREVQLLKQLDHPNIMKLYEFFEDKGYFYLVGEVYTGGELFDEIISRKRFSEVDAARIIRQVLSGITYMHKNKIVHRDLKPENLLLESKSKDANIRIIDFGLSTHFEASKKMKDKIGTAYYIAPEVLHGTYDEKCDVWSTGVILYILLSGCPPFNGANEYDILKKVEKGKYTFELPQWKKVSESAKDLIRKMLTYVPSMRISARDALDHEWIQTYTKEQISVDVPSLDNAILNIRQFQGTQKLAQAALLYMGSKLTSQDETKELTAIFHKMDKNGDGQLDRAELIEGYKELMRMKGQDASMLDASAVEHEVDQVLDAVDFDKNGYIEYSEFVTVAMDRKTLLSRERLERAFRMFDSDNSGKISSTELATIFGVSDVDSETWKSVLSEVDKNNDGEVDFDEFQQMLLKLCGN
row,Structure (SMILES),IC50 [nM]
1,"COC(C)(C)Cn1nc(-c2ccc3cc(OC4CC4)ccc3c2)c2c(N)ncnc21 [Example 66, 3-(6-cyclopropoxynaphthalen-2-yl)-1-(2-methoxy-2-methylpropyl)-1H-pyrazolo[3,4-d]pyrimidin-4-amine]",1660
2,"COC(C)(C)Cn1nc(-c2ccc3nc(OC4CC4)ccc3c2)c2c(N)ncnc21 [Example 67, 3-(2-cyclopropoxyquinolin-6-yl)-1-(2-methoxy-2-methylpropyl)-1H-pyrazolo[3,4-d]pyrimidin-4-amine]",430
3,"COC(=O)C(C)(C)Cn1nc(-c2ccc3cc(OC4CC4)ccc3c2)c2c(N)ncnc21 [Example 68, methyl 3-(4-amino-3-(6-cyclopropoxynaphthalen-2-yl)-1H-pyrazolo[3,4-d]pyrimidin-1-yl)-2,2-dimethylpropanoate]",9.7
4,"COC(=O)C(C)(C)Cn1nc(-c2ccc3nc(OC4CC4)ccc3c2)c2c(N)ncnc21 [Example 69, methyl 3-(4-amino-3-(2-cyclopropoxyquinolin-6-yl)-1H-pyrazolo[3,4-d]pyrimidin-1-yl)-2,2-dimethylpropanoate]",43.2
5,"CCOc1ccc2cc(-c3nn(CC4(O)CCNCC4)c4ncnc(N)c34)ccc2c1 [Example 70, 4-((4-amino-3-(6-ethoxynaphthalen-2-yl)-1H-pyrazolo[3,4-d]pyrimidin-1-yl)methyl)piperidin-4-ol]",23.3
6,"CCOc1ccc2cc(-c3nn(CC4(O)CCN(C)CC4)c4ncnc(N)c34)ccc2c1 [Example 71, 4-((4-amino-3-(6-ethoxynaphthalen-2-yl)-1H-pyrazolo[3,4-d]pyrimidin-1-yl)methyl)-1-methylpiperidin-4-ol]",59.3
7,"COC(=O)COc1ccc2cc(-c3nn(CC4CCN(C)CC4)c4ncnc(N)c34)ccc2c1 [Example 72, methyl 2-((6-(4-amino-1-((1-methylpiperidin-4-yl)methyl)-1H-pyrazolo[3,4-d]pyrimidin-3-yl)naphthalen-2-yl)oxy)acetate]",49.6
8,"CN1CCC(Cn2nc(-c3ccc4cc(OCC#N)ccc4c3)c3c(N)ncnc32)CC1 [Example 73, 2-((6-(4-amino-1-((1-methylpiperidin-4-yl)methyl)-1H-pyrazolo[3,4-d]pyrimidin-3-yl)naphthalen-2-yl)oxy)acetonitrile]",73.8
9,"CCOc1ccc2cc(-c3nn(CC4(C#N)CCNCC4)c4ncnc(N)c34)ccc2c1 [Example 74, 4-((4-amino-3-(6-ethoxynaphthalen-2-yl)-1H-pyrazolo[3,4-d]pyrimidin-1-yl)methyl)piperidine-4-carbonitrile]",2.7
10,"CCOc1ccc2cc(-c3nn(CC4(C#N)CCN(C)CC4)c4ncnc(N)c34)ccc2c1 [Example 75, 4-((4-amino-3-(6-ethoxynaphthalen-2-yl)-1H-pyrazolo[3,4-d]pyrimidin-1-yl)methyl)-1-methylpiperidine-4-carbonitrile]",18.3
11,"CC(C)(Cn1nc(-c2ccc3cc(OC4CC4)ccc3c2)c2c(N)ncnc21)C(=O)O [Example 76, 3-(4-amino-3-(6-cyclopropoxynaphthalen-2-yl)-1H-pyrazolo[3,4-d]pyrimidin-1-yl)-2,2-dimethylpropanoic acid]",19.4
12,"CC(C)(F)Cn1nc(-c2ccc3cc(OC4CC4)ccc3c2)c2c(N)ncnc21 [Example 77, 3-(6-cyclopropoxynaphthalen-2-yl)-1-(2-fluoro-2-methylpropyl)-1H-pyrazolo[3,4-d]pyrimidin-4-amine]",6.4
13,"Nc1ncnc2c1c(-c1ccc3cc(OC4CC4)ccc3c1)nn2CC1(O)CCNCC1 [Example 78, 4-((4-amino-3-(6-cyclopropoxynaphthalen-2-yl)-1H-pyrazolo[3,4-d]pyrimidin-1-yl)methyl)piperidin-4-ol]",0.7
14,"CN1CCC(O)(Cn2nc(-c3ccc4cc(OC5CC5)ccc4c3)c3c(N)ncnc32)CC1 [Example 79, 4-((4-amino-3-(6-cyclopropoxynaphthalen-2-yl)-1H-pyrazolo[3,4-d]pyrimidin-1-yl)methyl)-1-methylpiperidin-4-ol]",4.5
15,"CCOc1ccc2cc(-c3nn(CC4(O)CCN(C)CC4)c4ncnc(N)c34)ccc2n1 [Example 80, 4-((4-amino-3-(2-ethoxyquinolin-6-yl)-1H-pyrazolo[3,4-d]pyrimidin-1-yl)methyl)-1-methylpiperidin-4-ol]",23.1
16,"Nc1ncnc2c1c(-c1ccc3nc(OC4CC4)ccc3c1)nn2CC1(O)CCNCC1 [Example 82, 4-((4-amino-3-(2-cyclopropoxyquinolin-6-yl)-1H-pyrazolo[3,4-d]pyrimidin-1-yl)methyl)piperidin-4-ol]",0.7
17,"CN1CCC(C#N)(Cn2nc(-c3ccc4cc(OC5CC5)ccc4c3)c3c(N)ncnc32)CC1 [Example 83, 4-((4-amino-3-(6-cyclopropoxynaphthalen-2-yl)-1H-pyrazolo[3,4-d]pyrimidin-1-yl)methyl)-1-methylpiperidine-4-carbonitrile]",3.5
18,"CCOc1ccc2cc(-c3nn(CC4(O)CCNCC4)c4ncnc(N)c34)ccc2n1 [Example 84, 4-((4-amino-3-(2-ethoxyquinolin-6-yl)-1H-pyrazolo[3,4-d]pyrimidin-1-yl)methyl)piperidin-4-ol]",4

row,Structure (SMILES),IC50 [nM]
1,"CN1CCC(O)(Cn2nc(-c3ccc4nc(OC5CC5)ccc4c3)c3c(N)ncnc32)CC1 [Example 85, 4-((4-amino-3-(2-cyclopropoxyquinolin-6-yl)-1H-pyrazolo[3,4-d]pyrimidin-1-yl)methyl)-1-methylpiperidin-4-ol]",21
2,"CCOc1ccc2cc(-c3nn(CC4(C#N)CCNCC4)c4ncnc(N)c34)ccc2n1 [Example 86, 4-((4-amino-3-(2-ethoxyquinolin-6-yl)-1H-pyrazolo[3,4-d]pyrimidin-1-yl)methyl)piperidine-4-carbonitrile]",1.5
3,"CCOc1ccc2cc(-c3nn(CC4(C#N)CCN(C)CC4)c4ncnc(N)c34)ccc2n1 [Example 87, 4-((4-amino-3-(2-ethoxyquinolin-6-yl)-1H-pyrazolo[3,4-d]pyrimidin-1-yl)methyl)-1-methylpiperidine-4-carbonitrile]",103
4,"CC(C)(O)Cn1nc(-c2ccc3cc(OCC#N)ccc3c2)c2c(N)ncnc21 [Example 88, 2-(6-(4-amino-1-(2-hydroxy-2-methylpropyl)-1H-pyrazolo[3,4-d]pyrimidin-3-yl)naphthalen-2-yloxy)acetonitrile]",112
5,"COC(=O)COc1ccc2cc(-c3nn(CC4CCNCC4)c4ncnc(N)c34)ccc2n1 [Example 89, methyl 2-(6-(4-amino-1-(piperidin-4-ylmethyl)-1H-pyrazolo[3,4-d]pyrimidin-3-yl)quinolin-2-yloxy)acetate]",1440
6,"Nc1ncnc2c1c(-c1ccc3cc(OC4CC4)ccc3c1)nn2CC1(O)CNC1 [Example 90, 3-((4-amino-3-(6-cyclopropoxynaphthalen-2-yl)-1H-pyrazolo[3,4-d]pyrimidin-1-yl)methyl)azetidin-3-ol]",5.1
7,"CN1CC(O)(Cn2nc(-c3ccc4cc(OC5CC5)ccc4c3)c3c(N)ncnc32)C1 [Example 91, 3-((4-amino-3-(6-cyclopropoxynaphthalen-2-yl)-1H-pyrazolo[3,4-d]pyrimidin-1-yl)methyl)-1-methylazetidin-3-ol]",3.8
8,"CN1CCC(C#N)(Cn2nc(-c3ccc4nc(OC5CC5)ccc4c3)c3c(N)ncnc32)CC1 [Example 92, 4-((4-amino-3-(2-cyclopropoxyquinolin-6-yl)-1H-pyrazolo[3,4-d]pyrimidin-1-yl)methyl)-1-methylpiperidine-4-carbonitrile]",5.5
9,"CCOc1ccc2cc(-c3nn(CC4(O)CNC4)c4ncnc(N)c34)ccc2n1 [Example 93, 3-((4-amino-3-(2-ethoxyquinolin-6-yl)-1H-pyrazolo[3,4-d]pyrimidin-1-yl)methyl)azetidin-3-ol]",2.9
10,"Nc1ncnc2c1c(-c1ccc3cc(OC(F)F)ccc3c1)nn2CC1CCNCC1 [Example 94, 3-(6-(difluoromethoxy)naphthalen-2-yl)-1-(piperidin-4-ylmethyl)-1H-pyrazolo[3,4-d]pyrimidin-4-amine]",1.9
11,"CN1CCC(Cn2nc(-c3ccc4cc(OC(F)F)ccc4c3)c3c(N)ncnc32)CC1 [Example 95, 3-(6-(difluoromethoxy)naphthalen-2-yl)-1-((1-methylpiperidin-4-yl)methyl)-1H-pyrazolo[3,4-d]pyrimidin-4-amine]",6.5
12,"CCOc1ccc2cc(-c3nn(CC4(O)CNC4)c4ncnc(N)c34)ccc2c1 [Example 96, 3-((4-amino-3-(6-ethoxynaphthalen-2-yl)-1H-pyrazolo[3,4-d]pyrimidin-1-yl)methyl)azetidin-3-ol]",7.8
13,"CCOc1ccc2cc(-c3nn(CC4(O)CN(C)C4)c4ncnc(N)c34)ccc2c1 [Example 97, 3-((4-amino-3-(6-ethoxynaphthalen-2-yl)-1H-pyrazolo[3,4-d]pyrimidin-1-yl)methyl)-1-methylazetidin-3-ol]",2.6
14,"Nc1ncnc2c1c(-c1ccc3cc(OC(F)F)ccc3c1)nn2CC1(O)CCNCC1 [Example 98, 4-((4-amino-3-(6-(difluoromethoxy)naphthalen-2-yl)-1H-pyrazolo[3,4-d]pyrimidin-1-yl)methyl)piperidin-4-ol]",7.5
15,"CN1CCC(O)(Cn2nc(-c3ccc4cc(OC(F)F)ccc4c3)c3c(N)ncnc32)CC1 [Example 99, 4-((4-amino-3-(6-(difluoromethoxy)naphthalen-2-yl)-1H-pyrazolo[3,4-d]pyrimidin-1-yl)methyl)-1-methylpiperidin-4-ol]",35.8
16,"N#CC1(Cn2nc(-c3ccc4cc(OC(F)F)ccc4c3)c3c(N)ncnc32)CCNCC1 [Example 100, 4-((4-amino-3-(6-(difluoromethoxy)naphthalen-2-yl)-1H-pyrazolo[3,4-d]pyrimidin-1-yl)methyl)piperidine-4-carbonitrile]",2.5
17,"Nc1ncnc2c1c(-c1ccc3nc(OC4CC4)ccc3c1)nn2CC1(O)CNC1 [Example 101, 3-((4-amino-3-(2-cyclopropoxyquinolin-6-yl)-1H-pyrazolo[3,4-d]pyrimidin-1-yl)methyl)azetidin-3-ol]",3
18,"CN1CCC(C#N)(Cn2nc(-c3ccc4cc(OC(F)F)ccc4c3)c3c(N)ncnc32)CC1 [Example 102, 4-((4-amino-3-(6-(difluoromethoxy)naphthalen-2-yl)-1H-pyrazolo[3,4-d]pyrimidin-1-yl)methyl)-1-methylpiperidine-4-carbonitrile]",18.2
